Test results from PubChem BioAssay AID256 (DTP/NCI, 2004).
Values joined by “and” are separate entries in the source; they are usually repeats but may differ in a detail not shown here. Equal entries are not always repeated. Toxic doses and inconclusive results are not listed. Residues, ends and D or L forms follow the SMILES beside them. *: point of attachment. Trt = c1ccc(C(c2ccccc2)(c2ccccc2)*)cc1

Test system: CD2F1 mice, L1210 leukemia ip, survival T/C
Assay: NCI In Vivo Anticancer Drug Screen. Data for tumor model L1210 Leukemia (intraperitoneal) in CD2F1 (CDF1) mice
Settings: higher = longer survival
Summary of the method: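 Ratio T/C, where T is the treated-group value and C the vehicle-dosed control value, from mice implanted with a transplantable tumor.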

[1] = endpoint: mean survival time, dose: 25.0 mg/kg/injection, schedule: Q04DX003 (ip), vehicle: saline with Tween-80
[2] = endpoint: mean survival time, dose: 50.0 mg/kg/injection, schedule: Q04DX003 (ip), vehicle: saline with Tween-80
[3] = endpoint: mean survival time, dose: 100.0 mg/kg/injection, schedule: Q04DX003 (ip), vehicle: saline with Tween-80
[4] = endpoint: mean survival time, dose: 200.0 mg/kg/injection, schedule: Q04DX003 (ip), vehicle: saline with Tween-80
[5] = endpoint: mean survival time, dose: 400.0 mg/kg/injection, schedule: Q04DX003 (ip), vehicle: saline with Tween-80
[6] = endpoint: mean survival time, dose: 25.0 mg/kg/injection, schedule: Q01DX009 (ip), vehicle: Klucel (hydroxypropylcellulose) (HPC)
[7] = endpoint: mean survival time, dose: 50.0 mg/kg/injection, schedule: Q01DX009 (ip), vehicle: Klucel (hydroxypropylcellulose) (HPC)
[8] = endpoint: mean survival time, dose: 100.0 mg/kg/injection, schedule: Q01DX009 (ip), vehicle: Klucel (hydroxypropylcellulose) (HPC)
[9] = endpoint: mean survival time, dose: 200.0 mg/kg/injection, schedule: Q01DX009 (ip), vehicle: Klucel (hydroxypropylcellulose) (HPC)
[10] = endpoint: mean survival time, dose: 400.0 mg/kg/injection, schedule: Q01DX009 (ip), vehicle: Klucel (hydroxypropylcellulose) (HPC)
[11] = endpoint: mean survival time, dose: 100.0 mg/kg/injection, schedule: Q01DX009 (ip), vehicle: saline with Tween-80
[12] = endpoint: mean survival time, dose: 200.0 mg/kg/injection, schedule: Q01DX009 (ip), vehicle: saline with Tween-80
[13] = endpoint: mean survival time, dose: 400.0 mg/kg/injection, schedule: Q01DX009 (ip), vehicle: saline with Tween-80
[14] = endpoint: mean survival time, dose: 100.0 mg/kg/injection, schedule: Q01DX001 (ip), vehicle: saline with Tween-80
[15] = endpoint: mean survival time, dose: 200.0 mg/kg/injection, schedule: Q01DX001 (ip), vehicle: saline with Tween-80
[16] = endpoint: mean survival time, dose: 400.0 mg/kg/injection, schedule: Q01DX001 (ip), vehicle: saline with Tween-80
[17] = endpoint: mean survival time, dose: 100.0 mg/kg/injection, schedule: Q01DX001 (ip), vehicle: saline
[18] = endpoint: mean survival time, dose: 100.0 mg/kg/injection, schedule: Q04DX002 (ip), vehicle: saline
[19] = endpoint: mean survival time, dose: 200.0 mg/kg/injection, schedule: Q04DX002 (ip), vehicle: saline

`COC(=O)CCCNC(C)C` was tested, and the T/C (endpoint: mean survival time, dose: 12.5 mg/kg/injection, schedule: Q01DX009 (ip), vehicle: water) was 101 % of control, the T/C (endpoint: mean survival time, dose: 25.0 mg/kg/injection, schedule: Q01DX009 (ip), vehicle: water) was 95 % of control and the T/C (endpoint: mean survival time, dose: 50.0 mg/kg/injection, schedule: Q01DX009 (ip), vehicle: water) was 102 % of control. The T/C (endpoint: mean survival time, dose: 100.0 mg/kg/injection, schedule: Q01DX009 (ip), vehicle: water) was 95 % of control and the T/C (endpoint: mean survival time, dose: 200.0 mg/kg/injection, schedule: Q01DX009 (ip), vehicle: water) was 102 % of control.
For `CC(C)(C)[Si](OC(=O)N(CCCl)N=O)(c1ccccc1)c1ccccc1`, the T/C (endpoint: mean survival time, dose: 6.25 mg/kg/injection, schedule: Q01DX001 (ip), vehicle: distilled water + Tween-80) was 98 % of control, the T/C (endpoint: mean survival time, dose: 12.5 mg/kg/injection, schedule: Q01DX001 (ip), vehicle: distilled water + Tween-80) was 88 % of control and the T/C (endpoint: mean survival time, dose: 25.0 mg/kg/injection, schedule: Q01DX001 (ip), vehicle: distilled water + Tween-80) was 93 % of control. For the same molecule, the T/C (endpoint: mean survival time, dose: 50.0 mg/kg/injection, schedule: Q01DX001 (ip), vehicle: distilled water + Tween-80) was 88 % of control and the T/C (endpoint: mean survival time, dose: 100.0 mg/kg/injection, schedule: Q01DX001 (ip), vehicle: distilled water + Tween-80) was 90 % of control.
With `O=C(Nc1cccc(Cl)c1)Nc1ccccc1Cl` the T/C [1] was 93 % of control, the T/C [2] was 96 % of control and the T/C [3] was 95 % of control. For the same molecule, the T/C [4] was 89 % of control and the T/C [5] was 97 % of control.
In the case of `CC(=O)N(C)N(Cc1ccc(C#N)cc1)C(C)=O`, the T/C [6] is reported as 97 % of control, the T/C [7] is reported as 93 % of control and the T/C [8] is reported as 97 % of control. For the same molecule, the T/C [9] was 97 % of control and the T/C [10] was 98 % of control.
`O=C(O)/C=C/C(=O)NCc1ccco1` was tested, and the T/C [3] was 94 % of control, the T/C [4] was 94 % of control and the T/C [5] was 94 % of control.
For `C=C(C)Cc1cc(C(CC)C(CC)c2ccc(O)c(CC(=C)C)c2)ccc1O` (stereo unspecified), the T/C [11] was 100 % of control, the T/C (endpoint: mean survival time, dose: 100.0 mg/kg/injection, schedule: Q04DX003 (ip), vehicle: saline) was 96 % of control and the T/C [12] was 98 % of control. For the same molecule, the T/C (endpoint: mean survival time, dose: 200.0 mg/kg/injection, schedule: Q04DX003 (ip), vehicle: saline) was 93 % of control, the T/C [13] was 100 % of control and the T/C (endpoint: mean survival time, dose: 400.0 mg/kg/injection, schedule: Q04DX003 (ip), vehicle: saline) was 89 % of control.
With `C/C(=C/C(=O)O)C(=O)O.[NH-]C1CCCCC1[NH-].[Pt+2]` the T/C (endpoint: median survival time, dose: 3.12 mg/kg/injection, schedule: Q04DX003 (ip), vehicle: saline) was 100 % of control and 107 % of control, the T/C (endpoint: median survival time, dose: 6.25 mg/kg/injection, schedule: Q04DX003 (ip), vehicle: saline) was 96 % of control and 109 % of control and the T/C (endpoint: median survival time, dose: 12.5 mg/kg/injection, schedule: Q04DX003 (ip), vehicle: saline) was 108 % of control. The T/C (endpoint: median survival time, dose: 25.0 mg/kg/injection, schedule: Q04DX003 (ip), vehicle: saline) was 116 % of control and 111 % of control, the T/C (endpoint: median survival time, dose: 50.0 mg/kg/injection, schedule: Q04DX003 (ip), vehicle: saline) was 116 % of control and 120 % of control and the T/C (endpoint: median survival time, dose: 200.0 mg/kg/injection, schedule: Q04DX003 (ip), vehicle: saline) was 153 % of control and 185 % of control.
With `S=C(NCCNC(=S)[S][Sn]([c]1ccccc1)([c]1ccccc1)[c]1ccccc1)[S][Sn]([c]1ccccc1)([c]1ccccc1)[c]1ccccc1` the T/C [1] was 88 % of control, the T/C [2] was 93 % of control and the T/C [3] was 100 % of control.
In the case of `CCC1(O)C(=O)OCc2c1cc1n(c2=O)Cc2cc3cc(O)c(O)cc3nc2-1` (stereo unspecified), the T/C (endpoint: median survival time, dose: 10.0 mg/kg/injection, schedule: Q04DX002 (ip), vehicle: saline with Tween-80) is reported as 153 % of control, the T/C (endpoint: median survival time, dose: 40.0 mg/kg/injection, schedule: Q04DX002 (ip), vehicle: saline with Tween-80) is reported as 157 % of control and the T/C (endpoint: median survival time, dose: 80.0 mg/kg/injection, schedule: Q04DX002 (ip), vehicle: saline with Tween-80) is reported as 173 % of control.
With `N=c1c2ccccc2nnn1Cc1ccccc1` the T/C [14] was 98 % of control, the T/C [15] was 96 % of control and the T/C [16] was 93 % of control.
In the case of `Cc1nc2[nH]c(=S)[nH]c(=O)c2nc1C`, the T/C [3] is reported as 97 % of control, the T/C [4] is reported as 90 % of control and the T/C [5] is reported as 90 % of control.
For `CC(=O)O.[Ag]`, the T/C (endpoint: mean survival time, dose: 5.0 mg/kg/injection, schedule: Q01DX001 (ip), vehicle: saline) was 93 % of control, the T/C (endpoint: mean survival time, dose: 10.0 mg/kg/injection, schedule: Q01DX001 (ip), vehicle: saline) was 96 % of control and the T/C (endpoint: mean survival time, dose: 20.0 mg/kg/injection, schedule: Q01DX001 (ip), vehicle: saline) was 97 % of control. The T/C (endpoint: mean survival time, dose: 40.0 mg/kg/injection, schedule: Q01DX001 (ip), vehicle: saline) was 100 % of control, the T/C (endpoint: mean survival time, dose: 80.0 mg/kg/injection, schedule: Q01DX001 (ip), vehicle: saline) was 100 % of control and the T/C [17] was 91 % of control.
`CN(C)c1nc(N)nc(-c2cc[n+]([O-])cc2)n1` was tested, and the T/C [18] was 103 % of control and the T/C [19] was 88 % of control.
`O=C1c2ccccc2CC12OC2c1ccccc1` (stereo unspecified) was tested, and the T/C [6] was 103 % of control, the T/C [7] was 110 % of control and the T/C [8] was 89 % of control. For the same molecule, the T/C [9] was 98 % of control and the T/C [10] was 98 % of control.
With `Cc1cccc(C)c1N1C(N)=NC(N)=NC1(C)C` the T/C [17] was 101 % of control, the T/C (endpoint: mean survival time, dose: 200.0 mg/kg/injection, schedule: Q01DX001 (ip), vehicle: saline) was 93 % of control and the T/C (endpoint: mean survival time, dose: 400.0 mg/kg/injection, schedule: Q01DX001 (ip), vehicle: saline) was 93 % of control.
`CC1(C(=O)O)CCOC1=O` (stereo unspecified) was tested, and the T/C [18] was 102 % of control and the T/C [19] was 107 % of control.
For `CN(C)S(=O)(=O)/C=C(\Cl)c1ccccc1`, the T/C [14] was 97 % of control, the T/C [15] was 100 % of control and the T/C [16] was 104 % of control.
With `CC(=O)Nc1ccc2ccccc2c1` the T/C [3] was 103 % of control, the T/C [4] was 93 % of control and the T/C [5] was 104 % of control.
For `CCCCCCCCCCCCCCCC1=NC(C)(C)CN1C(C)C`, the T/C (endpoint: mean survival time, dose: 1.25 mg/kg/injection, schedule: Q01DX009 (ip), vehicle: saline with Tween-80) was 95 % of control, the T/C (endpoint: mean survival time, dose: 2.5 mg/kg/injection, schedule: Q01DX009 (ip), vehicle: saline with Tween-80) was 102 % of control and the T/C (endpoint: mean survival time, dose: 5.0 mg/kg/injection, schedule: Q01DX009 (ip), vehicle: saline with Tween-80) was 98 % of control.
In the case of `CN1CCN(Cc2cn(C3CC(O)C(CO)O3)c(=O)[nH]c2=O)CC1` (stereo unspecified), the T/C (endpoint: mean survival time, dose: 12.5 mg/kg/injection, schedule: Q01DX005 (ip), vehicle: water) is reported as 96 % of control, the T/C (endpoint: mean survival time, dose: 25.0 mg/kg/injection, schedule: Q01DX005 (ip), vehicle: water) is reported as 93 % of control and the T/C (endpoint: mean survival time, dose: 50.0 mg/kg/injection, schedule: Q01DX005 (ip), vehicle: water) is reported as 91 % of control. The T/C (endpoint: mean survival time, dose: 100.0 mg/kg/injection, schedule: Q01DX005 (ip), vehicle: water) was 95 % of control and the T/C (endpoint: mean survival time, dose: 200.0 mg/kg/injection, schedule: Q01DX005 (ip), vehicle: water) was 90 % of control.
In the case of `Cc1ccc2ccccc2c1N(CC(=O)O)S(=O)(=O)c1ccccc1`, the T/C [11] is reported as 103 % of control, the T/C [12] is reported as 101 % of control and the T/C [13] is reported as 88 % of control.
In the case of `O=C(CC(Cl)(C(F)(F)F)C(F)(F)F)c1cccc([N+](=O)[O-])c1`, the T/C (endpoint: mean survival time, dose: 12.5 mg/kg/injection, schedule: Q01DX001 (ip), vehicle: saline with Tween-80) is reported as 103 % of control, the T/C (endpoint: mean survival time, dose: 25.0 mg/kg/injection, schedule: Q01DX001 (ip), vehicle: saline with Tween-80) is reported as 100 % of control and the T/C (endpoint: mean survival time, dose: 50.0 mg/kg/injection, schedule: Q01DX001 (ip), vehicle: saline with Tween-80) is reported as 97 % of control and 105 % of control.
`COc1ccc(NC(=O)Oc2cccc(C)c2)cc1` was tested, and the T/C (endpoint: mean survival time, dose: 100.0 mg/kg/injection, schedule: Q04DX002 (ip), vehicle: saline with Tween-80) was 90 % of control, the T/C (endpoint: mean survival time, dose: 200.0 mg/kg/injection, schedule: Q04DX002 (ip), vehicle: saline with Tween-80) was 97 % of control and the T/C (endpoint: mean survival time, dose: 400.0 mg/kg/injection, schedule: Q04DX002 (ip), vehicle: saline with Tween-80) was 93 % of control.
For `COC(=O)C(CC(C)C)NC(=O)C(N)CSC(c1ccccc1)(c1ccccc1)c1ccccc1` (stereo unspecified) (H-Cys(Trt)-Leu-OMe; configuration not given here), the T/C (endpoint: mean survival time, dose: 25.0 mg/kg/injection, schedule: Q01DX009 (ip), vehicle: saline) was 104 % of control, the T/C (endpoint: mean survival time, dose: 50.0 mg/kg/injection, schedule: Q01DX009 (ip), vehicle: saline) was 110 % of control and the T/C (endpoint: mean survival time, dose: 100.0 mg/kg/injection, schedule: Q01DX009 (ip), vehicle: saline) was 108 % of control.
